Measured values published in patent publication US20060240404A1, “Methods of isolating genes encoding proteins of specific function and of screening for pharmaceutically active agents” (Yeda Research And Development Co. Ltd., priority 2000, published 2006).

Test system: translocation of fibrillar adhesion in GFP-tensin transfected HFF cells
Test: Correlation analysis of fibrillar adhesion dynamics in time-lapse movies of GFP-tensin transfected cells treated with acto-myosin inhibitors
Format: cell-based
Conditions: for duration till maximum respond after addition / translocation of fibrillar adhesion following addition: 2 mM Lat-A, 150 mM H-7 or 100 mM ML-7; for correlation between sequential frames following addition of inhibitor: Eq. 1, 2 mM Lat-A, 150 mM H-7 or 100 mM ML-7, before treatment <0.65
Protocol: HFF cells were analyzed by time-lapse fluorescence recording starting 24 hours after transfection with GFP-tensin as described (10). During the recording different inhibitors of acto-myosin contractility were added ([…]) at the time point indicated by the first arrow, and washed out at the time point indicated by the second arrow. In each digital movie, a constant square frame (I) of […] containing only fibrillar adhesions without focal contacts was acquired as a function of time. Correlation was calculated between pairs of subsequent time points (It and It+1) for the duration of the movie. Correlation between It and It+1 was calculated (according to Eq. 1, where N=It and M=It+1). The graphs present this correlation as a function of time (t); and
The basic idea of this novel approach is that correlation is a quantitative measure of image similarity. Correlation is defined as the normalized pixel-by-pixel multiplication of two normalized images M and N (Eq. 1), and it is higher when the similarity between the two images is higher. Thus, if, and only if, N and M are identical images the correlation gets its maximum value of 1. When N equals −M (inverted images) the correlation reaches its minimum value, −1, and when N and M are totally unrelated images the correlation approaches zero. The below correlation equation (Eq. 1) can be extended to evaluate the similarity of two images which, are displaced with respect to each other (Eq. 2). To illustrate how this can be applied to characterize dynamic processes consider 4 cases in which N and M are two images of the same field taken at two close time points: (i) a correlation which equals 1 indicates a lack of any change in the field (since N equals M); (ii) if all the objects in the field are translated one pixel along the x axis, such that Mx,y=Nx+1,y, the correlation defined above will be less then 1. Yet when the objects are bigger then one pixel they will overlap in the two images, and thus the value of the correlation between N and M will be still close to 1; (iii) if the objects are translated 100 pixels, such that Mx,y=Nx+100,y with no overlap between the objects in the two images, the correlation will be low. However there is a single translational vector ([a^max,b^max], Eq. 4), i.e. (1,0) for case (ii) and (100,0) for case (iii), that will bring the two images to perfectly overlap, Mx,y=Nx+a,y+b, and will raise the more general translated correlation (C, Eq. 2) back to its maximal value of unity; (iv) if the objects moved 100 pixels, but different ones moved to different directions, the correlation will be low for all possible translational vectors, since the two images never overlap.
Inhibitors of acto-myosin contractility, like latrunculin-A (Lat-A), H-7 and ML-7, block the translocation of fibrilar adhesion (Zamir et al., Nature Cell Biology, Vol. 2, 191-196, 2000). In order to follow the kinetics of this effect a correlation analysis according to Eq. 1 was applied on digital movies of GFP-tensin transfected cells before, during and after treatments with inhibitors. Before treatment, fibrilar adhesions were highly dynamic and thus the correlation between two sequential frames was low (<0.65, FIG. 2). Following the addition of Lat-A, H-7 or ML-7 the translocation of fibrillar adhesion was inhibited, leading to higher correlation between sequential frames (˜0.78, 0.81 and 0.92 for Lat-A, H-7 and ML-7, respectively). The duration till maximum respond to Lat-A was relatively short (˜8 minutes after addition), while the respond to H-7 and ML-7 were more gradual (˜50 minutes after H-7 addition and ˜80 minutes after ML-7 addition). After washing-out the drugs, the translocation of fibrillar adhesion recovered and the correlation dropped back to lower levels. The recovery from H-7 was relatively fast (<20 minutes) while recovery from Lat-A and ML-7 took relatively long time (>80 minutes).

Compound | duration till maximum respond after addition [min] | translocation of fibrillar adhesion following addition | correlation between sequential frames following addition of inhibitor | recovery of fibrillar adhesion translocation after washing-out the drug (after wash-out) [min]
CC1CNCCN1S(=O)(=O)c1cccc2cnccc12 (stereo not shown) [H-7] | ~50 | inhibited | ~0.81 | < 20
O=S(=O)(c1cccc2c(I)cccc12)N1CCCNCC1 [ML-7] | ~80 | inhibited | ~0.92 | –
C/C1=C/C(=O)O[C@@H]2C[C@@H](CC[C@H](C)/C=C\C=C\CC1)O[C@@](O)([C@@H]1CSC(=O)N1)C2 [Lat-A, latrunculin-A] | ~8 | inhibited | ~0.78 | –
